*1 amine or outer side, *2 acyl side, *3 side chain or, on linkers, in order; H or OH if unused. Where a SMILES comes first, the peptide text is derived from it. [ ]: non-standard residue; d: D form. Trp(βS-Me,4-F) = C[C@@H](c1c[nH]c2cccc(F)c12)[C@H](N)C(=O)O; Bip(4'-COOH) = N[C@@H](Cc1ccc(-c2ccc(C(=O)O)cc2)cc1)C(=O)O; X2 = O=C(O)c1ccc(-c2ccc(C[C@H](N[*:1])C(=O)[*:2])cn2)cc1; X1 = CC(=O)N1CCN(c2ccc(C[C@H](N[*:1])C(=O)[*:2])cn2)CC1; 1Nal(3S-Me) = C[C@@H](c1cccc2ccccc12)[C@H](N)C(=O)O; X12 = CC(=O)NCCOc1ccc(C[C@H](N[*:1])C(=O)[*:2])cn1; Phe(4-COOH) = N[C@@H](Cc1ccc(C(=O)O)cc1)C(=O)O; h3Pal(5-CN) = N#Cc1cncc(CC[C@H](N)C(=O)O)c1; Pro(4R-NH2) = N[C@H]1CN[C@H](C(=O)O)C1; hTyr = N[C@@H](CCc1ccc(O)cc1)C(=O)O; 4Pal = N[C@@H](Cc1ccncc1)C(=O)O; dDab = NCC[C@@H](N)C(=O)O; dNMeA = CN[C@H](C)C(=O)O; Dap = NC[C@H](N)C(=O)O
Target: T1, Recombinant human IL-1β (Homo sapiens, UniProt P01584)
T1 construct: purchased BioLegend 579404
Assay: IL-6 assay in MRC5 cells: inhibition of IL-1β induced IL-6 secretion (AlphaLISA)
Format: cell-based
Conditions: inhibition of IL-1β induced IL-6 secretion in MRC5 cells; IL-1β pre-incubated 1 hour with compound; read-out: MRC5 IC50
Protocol: Procedure for IL-6 Assay in MRC5 Cells
The inhibition of IL-1β induced IL-6 secretion was evaluated in MRC5 cells. Recombinant human IL-1β (BioLegend 579404) at 2×EC80 concentration was prepared in seeding medium, EMEM (ATCC 30-2003) with 0.025% BSA (Sigma A9576), 1× penicillin/streptomycin (Gibco 15070-063), 1×NEAA (Gibco 11140-050), 1× GlutaMax (Gibco 35050-061), and 1× sodium pyruvate (Gibco 11360-070). 20 μL of IL-1β was added to a 384-well collagen-coated plate (Corning 354664) and pre-incubated at ambient temperature for 1 hour with 200 nL of compound dispensed using an ECHO 555 liquid handler. Human lung fibroblast MRC5 cells (ATCC CCL-171) were added at a density of 3000 cells/20 μL per well. The cells were prepared by passaging three times in growth medium, EMEM (ATCC 30-2003) with 10% fetal bovine serum (Gibco 16140-071), 1× penicillin/streptomycin (Gibco 15070-063), 1×NEAA (Gibco 11140-050), 1× GlutaMax (Gibco 35050-061), and 1× sodium pyruvate (Gibco 11360-070) in collagen-coated T175 flasks (Greiner 661950) and harvested in seeding medium after 5 minutes of 0.25% trypsin-EDTA (Gibco 25200-056) digestion. The 384-well collagen-coated plate, containing a final volume of 40 μL, was incubated at 37° C., 5% CO2 overnight. 5 μL of the conditioned medium was transferred to a 384-well AlphaLISA plate (PerkinElmer 6005350) for detection of IL-6 using the human AlphaLISA IL-6 kit (PerkinElmer AL223F) as per the manufacturer's protocol. 20 μL of the acceptor bead/biotinylated antibody mix was added to the 384-well AlphaLISA plate and incubated for 1 hour at ambient temperature. The donor bead mix was protected from light and 25 μL was added to the plate and incubated for 30 minutes at ambient temperature. The AlphaLISA plate was read on an EnVision multimode plate reader (Perkin Elmer model 2104) using the AlphaScreen setting (laser exc at 680 nm and emis at 570 nm). Dose response curves and IC50 values were analyzed using a 4-parameter logistic equation in Spotfire software (Tibco, Palo Alto, CA).

T1 sequence (P01584 117-269): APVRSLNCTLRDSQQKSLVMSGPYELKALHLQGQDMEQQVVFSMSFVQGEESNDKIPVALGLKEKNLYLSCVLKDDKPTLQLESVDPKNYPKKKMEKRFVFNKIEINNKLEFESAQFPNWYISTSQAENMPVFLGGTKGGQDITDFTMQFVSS

Row | Structure (SMILES) | IC50 [nM]
1 | CC(=O)N1CCN(c2ccc(C[C@@H]3NC(=O)[C@H](CCc4cncc(C#N)c4)NC(=O)[C@@H](C)NC(=O)[C@H](CN)NC(=O)[C@H](Cc4ccncc4)NC(=O)[C@H](Cc4ccc(-c5ccc(C(=O)O)cc5)cc4)NC(=O)CNC(=O)[C@@H](C)N(C)C(=O)[C@H](CC(=O)O)NC(=O)[C@H]([C@@H](C)c4cccc5ccccc45)NC(=O)[C@@H]4C[C@@H](N)CN4C(=O)CNC(=O)[C@H](Cc4ccc(C(=O)O)cc4)NC(=O)[C@H](Cc4c[nH]c5ccccc45)NC3=O)cn2)CC1 [Example 1] (cyclo([X1]W[Phe(4-COOH)]G[Pro(4R-NH2)][1Nal(3S-Me)]D[dNMeA]G[Bip(4'-COOH)][4Pal][Dap][dA][h3Pal(5-CN)])) | 0.0365
2 | CC(=O)N1CCN(c2ccc(C[C@@H]3NC(=O)[C@H](CCc4cncc(C#N)c4)NC(=O)[C@@H](C)NC(=O)[C@H](CC(C)C)NC(=O)[C@H](CCCCN)NC(=O)[C@H](Cc4ccc(-c5ccc(C(=O)O)cc5)cc4)NC(=O)CNC(=O)[C@@H](C)N(C)C(=O)[C@H](CC(=O)O)NC(=O)[C@H]([C@@H](C)c4cccc5ccccc45)NC(=O)[C@@H]4C[C@@H](N)CN4C(=O)CNC(=O)[C@H](Cc4ccc(C(=O)O)cc4)NC(=O)[C@H](Cc4c[nH]c5ccccc45)NC3=O)cn2)CC1 [Example 2] (cyclo([X1]W[Phe(4-COOH)]G[Pro(4R-NH2)][1Nal(3S-Me)]D[dNMeA]G[Bip(4'-COOH)]KL[dA][h3Pal(5-CN)])) | 0.0217
3 | CC(=O)N1CCN(c2ccc(C[C@@H]3NC(=O)[C@H](CCc4ccc(O)cc4)NC(=O)[C@@H](C)NC(=O)[C@H](CC(C)C)NC(=O)[C@H](CCCCN)NC(=O)[C@H](Cc4ccc(-c5ccc(C(=O)O)cc5)cc4)NC(=O)CNC(=O)[C@@H](C)N(C)C(=O)[C@H](CC(=O)O)NC(=O)[C@H]([C@@H](C)c4cccc5ccccc45)NC(=O)[C@@H]4C[C@@H](N)CN4C(=O)CNC(=O)[C@H](Cc4ccc(C(=O)O)cc4)NC(=O)[C@H](Cc4c[nH]c5ccccc45)NC3=O)cn2)CC1 [Example 3] (cyclo([X1]W[Phe(4-COOH)]G[Pro(4R-NH2)][1Nal(3S-Me)]D[dNMeA]G[Bip(4'-COOH)]KL[dA][hTyr])) | 0.0599
4 | CC(=O)N1CCN(c2ccc(C[C@@H]3NC(=O)[C@H](CCc4cncc(C#N)c4)NC(=O)[C@@H](C)NC(=O)[C@H](CN)NC(=O)[C@H](Cc4c[nH]c5ccccc45)NC(=O)[C@H](Cc4ccc(-c5ccc(C(=O)O)cc5)cc4)NC(=O)CNC(=O)[C@@H](C)N(C)C(=O)[C@H](CC(=O)O)NC(=O)[C@H]([C@@H](C)c4cccc5ccccc45)NC(=O)[C@@H]4C[C@@H](N)CN4C(=O)CNC(=O)[C@H](Cc4ccc(C(=O)O)cc4)NC(=O)[C@H](Cc4c[nH]c5ccccc45)NC3=O)cn2)CC1 [Example 4] (cyclo([X1]W[Phe(4-COOH)]G[Pro(4R-NH2)][1Nal(3S-Me)]D[dNMeA]G[Bip(4'-COOH)]W[Dap][dA][h3Pal(5-CN)])) | 0.0438
5 | CC(=O)N1CCN(c2ccc(C[C@@H]3NC(=O)[C@H](CCc4ccc(O)cc4)NC(=O)[C@@H](C)NC(=O)[C@H](CN)NC(=O)[C@H](Cc4c[nH]c5ccccc45)NC(=O)[C@H](Cc4ccc(-c5ccc(C(=O)O)cc5)cc4)NC(=O)CNC(=O)[C@@H](C)N(C)C(=O)[C@H](CC(=O)O)NC(=O)[C@H]([C@@H](C)c4cccc5ccccc45)NC(=O)[C@@H]4C[C@@H](N)CN4C(=O)CNC(=O)[C@H](Cc4ccc(C(=O)O)cc4)NC(=O)[C@H](Cc4c[nH]c5ccccc45)NC3=O)cn2)CC1 [Example 5] (cyclo([X1]W[Phe(4-COOH)]G[Pro(4R-NH2)][1Nal(3S-Me)]D[dNMeA]G[Bip(4'-COOH)]W[Dap][dA][hTyr])) | 0.674
6 | CC(=O)N1CCN(c2ccc(C[C@@H]3NC(=O)[C@H](CCc4ccc(O)cc4)NC(=O)[C@@H](C)NC(=O)[C@H](CC(C)C)NC(=O)[C@H](CCCCN)NC(=O)[C@H](Cc4ccc(-c5ccc(C(=O)O)cc5)cc4)NC(=O)CNC(=O)[C@@H](C)N(C)C(=O)[C@H](CC(=O)O)NC(=O)[C@H]([C@@H](C)c4c[nH]c5cccc(F)c45)NC(=O)[C@@H]4C[C@@H](N)CN4C(=O)CNC(=O)[C@H](Cc4ccc(C(=O)O)cc4)NC(=O)[C@H](Cc4c[nH]c5ccccc45)NC3=O)cn2)CC1 [Example 6] (cyclo([X1]W[Phe(4-COOH)]G[Pro(4R-NH2)][Trp(βS-Me,4-F)]D[dNMeA]G[Bip(4'-COOH)]KL[dA][hTyr])) | 0.0666
7 | CC(=O)N1CCN(c2ccc(C[C@@H]3NC(=O)[C@H](CCc4ccc(O)cc4)NC(=O)[C@@H](CCN)NC(=O)[C@H](CC(C)C)NC(=O)[C@H](CCCCN)NC(=O)[C@H](Cc4ccc(-c5ccc(C(=O)O)cc5)cc4)NC(=O)CNC(=O)[C@@H](C)N(C)C(=O)[C@H](CC(=O)O)NC(=O)[C@H]([C@@H](C)c4c[nH]c5cccc(F)c45)NC(=O)[C@@H]4C[C@@H](N)CN4C(=O)CNC(=O)[C@H](Cc4ccc(C(=O)O)cc4)NC(=O)[C@H](Cc4c[nH]c5ccccc45)NC3=O)cn2)CC1 [Example 7] (cyclo([X1]W[Phe(4-COOH)]G[Pro(4R-NH2)][Trp(βS-Me,4-F)]D[dNMeA]G[Bip(4'-COOH)]KL[dDab][hTyr])) | 0.135
8 | CC(=O)N1CCN(c2ccc(C[C@@H]3NC(=O)[C@H](CCc4ccc(O)cc4)NC(=O)[C@@H](CCN)NC(=O)CNC(=O)[C@H](Cc4c[nH]c5ccccc45)NC(=O)[C@H](Cc4ccc(-c5ccc(C(=O)O)cc5)cc4)NC(=O)CNC(=O)[C@@H](C)N(C)C(=O)[C@H](CC(=O)O)NC(=O)[C@H]([C@@H](C)c4c[nH]c5cccc(F)c45)NC(=O)[C@@H]4C[C@@H](N)CN4C(=O)CNC(=O)[C@H](Cc4ccc(C(=O)O)cc4)NC(=O)[C@H](Cc4c[nH]c5ccccc45)NC3=O)cn2)CC1 [Example 8] (cyclo([X1]W[Phe(4-COOH)]G[Pro(4R-NH2)][Trp(βS-Me,4-F)]D[dNMeA]G[Bip(4'-COOH)]WG[dDab][hTyr])) | 0.14
9 | CC(=O)NCCOc1ccc(C[C@@H]2NC(=O)[C@H](CCc3ccc(O)cc3)NC(=O)[C@@H](C)NC(=O)[C@H](CC(C)C)NC(=O)[C@H](CCCCN)NC(=O)[C@H](Cc3ccc(-c4ccc(C(=O)O)cc4)cc3)NC(=O)CNC(=O)[C@@H](C)N(C)C(=O)[C@H](CC(=O)O)NC(=O)[C@H]([C@@H](C)c3c[nH]c4cccc(F)c34)NC(=O)[C@@H]3C[C@@H](N)CN3C(=O)CNC(=O)[C@H](Cc3ccc(C(=O)O)cc3)NC(=O)[C@H](Cc3c[nH]c4ccccc34)NC2=O)cn1 [Example 9] (cyclo([X12]W[Phe(4-COOH)]G[Pro(4R-NH2)][Trp(βS-Me,4-F)]D[dNMeA]G[Bip(4'-COOH)]KL[dA][hTyr])) | 0.118
10 | C[C@@H]1C(=O)NCC(=O)N[C@@H](Cc2ccc(-c3ccc(C(=O)O)cc3)nc2)C(=O)N[C@@H](Cc2c[nH]c3ccccc23)C(=O)N[C@@H](CN)C(=O)N[C@H](C)C(=O)N[C@@H](CCc2ccc(O)cc2)C(=O)N[C@@H](Cc2ccc(-c3ccc(C(=O)O)cc3)nc2)C(=O)N[C@@H](Cc2c[nH]c3ccccc23)C(=O)N[C@@H](Cc2ccc(C(=O)O)cc2)C(=O)NCC(=O)N2C[C@H](N)C[C@H]2C(=O)N[C@@H]([C@@H](C)c2cccc3ccccc23)C(=O)N[C@@H](CC(=O)O)C(=O)N1C [Example 10] (cyclo([X2]W[Phe(4-COOH)]G[Pro(4R-NH2)][1Nal(3S-Me)]D[dNMeA]G[X2]W[Dap][dA][hTyr])) | 0.256
11 | C[C@@H]1C(=O)NCC(=O)N[C@@H](Cc2ccc(-c3ccc(C(=O)O)cc3)cc2)C(=O)N[C@@H](Cc2c[nH]c3ccccc23)C(=O)N[C@@H](CN)C(=O)N[C@H](C)C(=O)N[C@@H](CCc2ccc(O)cc2)C(=O)N[C@@H](Cc2ccc(-c3ccc(C(=O)O)cc3)nc2)C(=O)N[C@@H](Cc2c[nH]c3ccccc23)C(=O)N[C@@H](Cc2ccc(C(=O)O)cc2)C(=O)NCC(=O)N2C[C@H](N)C[C@H]2C(=O)N[C@@H]([C@@H](C)c2cccc3ccccc23)C(=O)N[C@@H](CC(=O)O)C(=O)N1C [Example 11] (cyclo([X2]W[Phe(4-COOH)]G[Pro(4R-NH2)][1Nal(3S-Me)]D[dNMeA]G[Bip(4'-COOH)]W[Dap][dA][hTyr])) | 0.0908
12 | C[C@@H]1C(=O)NCC(=O)N[C@@H](Cc2ccc(-c3ccc(C(=O)O)cc3)nc2)C(=O)N[C@@H](Cc2c[nH]c3ccccc23)C(=O)N[C@@H](CN)C(=O)N[C@H](C)C(=O)N[C@@H](CCc2ccc(O)cc2)C(=O)N[C@@H](Cc2ccc(-c3ccc(C(=O)O)cc3)cc2)C(=O)N[C@@H](Cc2c[nH]c3ccccc23)C(=O)N[C@@H](Cc2ccc(C(=O)O)cc2)C(=O)NCC(=O)N2C[C@H](N)C[C@H]2C(=O)N[C@@H]([C@@H](C)c2cccc3ccccc23)C(=O)N[C@@H](CC(=O)O)C(=O)N1C [Example 12] (cyclo([Bip(4'-COOH)]W[Phe(4-COOH)]G[Pro(4R-NH2)][1Nal(3S-Me)]D[dNMeA]G[X2]W[Dap][dA][hTyr])) | 0.0551

Source: patent US20230406885A1, “CYCLIC PEPTIDES FOR TRAPPING INTERLEUKIN-1 BETA” (MERCK SHARP & DOHME LLC, priority 2022, published 2023)
